In PubChem BioAssay (NCI):
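Test compounds were applied to cells in 96-well plates for 48 hours at 5 doses. At the TGI there is no net growth.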

Tests used:
Experiment in all cases: NCI-60 cell line screen, 48 h
[1] = system: OVCAR-4 ovarian
[2] = system: SK-MEL-28 melanoma
[3] = system: HCT-116 colon
[4] = system: T-47D breast
[5] = system: SK-OV-3 ovarian
[6] = system: HS 578T breast
[7] = system: IGROV1 ovarian
[8] = system: HOP-62 NSCLC
[9] = system: SW-620 colon
[10] = system: HT29 colon
[11] = system: SK-MEL-2 melanoma
[12] = system: SF-295 CNS
[13] = system: NCI-H23 lung
[14] = system: NCI/ADR-RES ovarian
[15] = system: KM12 colon
[16] = system: COLO 205 colon
[17] = system: SNB-19 CNS
[18] = system: A549 NSCLC
[19] = system: EKVX NSCLC
[20] = system: MCF7 breast
[21] = system: MOLT-4 leukemia
[22] = system: HCC-2998 colon
[23] = system: CCRF-CEM leukemia
[24] = system: TK-10 renal
[25] = system: M14 melanoma
[26] = system: SK-MEL-5 melanoma
[27] = system: UACC-257 melanoma
[28] = system: RXF 393 renal
[29] = system: OVCAR-8 ovarian
[30] = system: OVCAR-3 ovarian
[31] = system: SF-268 CNS
[32] = system: ACHN renal
[33] = system: SR leukemia
[34] = system: MALME-3M melanoma
[35] = system: U251 CNS
[36] = system: SN12C renal
[37] = system: K-562 leukemia
[38] = system: HCT-15 colon
[39] = system: BT-549 breast
[40] = system: MDA-MB-435
[41] = system: NCI-H226 lung
[42] = system: MDA-N
[43] = system: SNB-75 CNS
[44] = system: RPMI-8226 leukemia
[45] = system: 786-0 renal
[46] = system: LOX IMVI melanoma
[47] = system: OVCAR-5 ovarian
[48] = system: NCI-H460 lung
[49] = system: CAKI-1 renal
[50] = system: UACC-62 melanoma
[51] = system: UO-31 renal
[52] = system: SF-539 CNS
[53] = system: HL-60(TB) leukemia
[54] = system: DU-145 prostate
[55] = system: PC-3 prostate
[56] = system: A498 renal
[57] = system: NCI-H522 lung
[58] = system: HOP-92 NSCLC
[59] = system: MDA-MB-231 breast

SMILES: CC(=O)N1N=C(c2ccccc2)NC(=O)C1c1cc(C)c(O)c(C)c1 (centres undefined)
- TGI [1]: 43.3 µM
- TGI [2]: > 100 µM
- TGI [3]: 54.1 µM
- TGI [4]: 42 µM
- TGI [5]: 34.3 µM
- TGI [6]: > 100 µM
- TGI [7]: 72.7 µM
- TGI [8]: 35.3 µM
- TGI [9]: > 100 µM
- TGI [10]: > 100 µM
- TGI [11]: 72.2 µM
- TGI [12]: 43.8 µM
- TGI [13]: 64.1 µM
- TGI [14]: 47.7 µM
- TGI [15]: > 100 µM
- TGI [16]: > 100 µM
- TGI [17]: 50.9 µM
- TGI [18]: 66.1 µM
- TGI [19]: 93.6 µM
- TGI [20]: 43.6 µM
- TGI [21]: > 100 µM
- TGI [22]: 45.9 µM
- TGI [23]: > 100 µM
- TGI [24]: 38.2 µM
- TGI [25]: > 100 µM
- TGI [26]: 56.4 µM
- TGI [27]: 96.7 µM
- TGI [28]: 31.2 µM
- TGI [29]: 31.4 µM
- TGI [30]: 36.7 µM
- TGI [31]: 34.3 µM
- TGI [32]: 44 µM
- TGI [33]: > 100 µM
- TGI [34]: 38.1 µM
- TGI [35]: 35 µM
- TGI [36]: 79.1 µM
- TGI [37]: > 100 µM
- TGI [38]: > 100 µM
- TGI [39]: 54.1 µM
- TGI [40]: > 100 µM
- TGI [41]: 49.7 µM
- TGI [42]: > 100 µM
- TGI [43]: 37.5 µM
- TGI [44]: > 100 µM
- TGI [45]: 31.7 µM
- TGI [46]: > 100 µM
- TGI [47]: > 100 µM
- TGI [48]: > 100 µM
- TGI [49]: > 100 µM
- TGI [50]: 40 µM
- TGI [51]: 48.9 µM
- TGI [52]: 40.3 µM
- TGI [53]: > 100 µM
- TGI [54]: 57.5 µM
- TGI [55]: 79.7 µM
- TGI [56]: 67.2 µM
- TGI [57]: 37 µM
- TGI [58]: 38.8 µM
- TGI [59]: 46.3 µM
